Data on four compounds can be found in US20070122830A1, “Prohibitin-directed diagnostics and therapeutics for cancer and chemotherapeutic drug resistance” (Aurelium BioPharma Inc., priority 2005, published 2007).

Holding throughout (format): cell-based, human
Experiment [1] deals with MCF-7 Breast Cancer Cell Line. The experiment in a line: MTT cytotoxicity assay, transfected MCF-7 cells plus chemotherapeutic drug. Conditions: for fold change of EC50, Prohibitin vs Control: direction IS/IR in same cell (E42); for sensitivity to drug of prohibitin siRNA treated cells: MCF-7, FIGS. 15A-15H. The procedure:
(§1) For a typical siRNA transfection, 1 nmole of the annealed siRNA duplex was mixed with 1.4 ml of Opti-MEM reagent (Invitrogen). In another tube, […] of Oligofectamine reagent (Invitrogen, Carlsbad, Calif.) was mixed with […] of Opti-MEM. The two solutions were combined and mixed gently by inversion and incubated for 20 min. at RT. The resulting solution was added to the cultured cells drop by drop in a 10 cm dish (cells are approximately 40-50% confluent). The next day the transfected cells were trypsinized and seeded in 6 or 96-well plates and further incubated for the indicated amount of time (assay dependent) before further analysis.
(§2) Cell survival was determined using the MTT cytotoxicity assay (see, e.g., Tokuyama et al. (2005) Anticancer Res. 25(1A): 17-22). RNA-transfected cells were seeded in triplicate into 96-well plates at 5×10^3 cells/well 48 hrs post-transfection. The cells were incubated for an additional 16 to 24 hrs before they were exposed to increasing concentrations of cytotoxic drugs. Doxorubicin (adriamycin), cisplatinum, taxol, vinblastin, vincristin, and mitoxantrone were all purchased from Sigma Corp. (St. Louis, Mo.). […] Appropriate dilutions were made in the respective media for each cell line. Following addition of drugs, incubation was continued for an additional 72 hrs. […] of MTT dye (5 mg/ml) were added into each well and the plate was further incubated at 37° C. for 4 hrs. The dye was solubilized with 10% Triton X-100, 0.01 N HCl and further incubated at 37° C. in the dark for 30 min. Cell viability was determined by measure of absorption at 570 nm in a Wallac multiwell plate reader (PerkinElmer, Inc., Boston, Mass.). The averages of triplicate wells were plotted using the Prism software (GraphPad Software, Inc., San Diego, Calif.).
Cell survival was determined as described in Example 3 above.
A general note: Tetrazolium dyes change colour on reduction, which living cells bring about.

Experiment [2] relates to SKOV3 Ovarian Cancer Cell Line. In words: MTT cytotoxicity assay, transfected SKOV3 cells plus chemotherapeutic drug. Conditions: for EC50 / fold change of EC50, Prohibitin vs Control: SKOV3 cells; for fold change of EC50, Prohibitin vs Control: direction IS/IR in same cell (E54); for IC50: Homo sapiens, SK-OV-3, SKOV3 cells. The procedure:
as §1
as §2, with “RNA-transfected” for “Cell survival was determined using the MTT cytotoxicity assay (see, e.g., Tokuyama et al. (2005) Anticancer Res. 25(1A): 17-22). RNA-transfected”, “drugs.” for “drugs. Doxorubicin (adriamycin), cisplatinum, taxol, vinblastin, vincristin, and mitoxantrone were all purchased from Sigma Corp. (St. Louis, Mo.).”
Each table summarizes the results of an individual experiment performed in triplicate.

The test system of experiment [3] is MDA Breast Cancer Cell Line. In words: MTT cytotoxicity assay, transfected MDA cells plus chemotherapeutic drug. Conditions: for EC50 / fold change of EC50, Prohibitin vs Control / IC50: MDA cells; for sensitivity to drug of prohibitin siRNA treated cells compared to mock-treated cells / sensitivity to drug of prohibitin siRNA treated cells compared to controls / sensitivity to drug of prohibitin siRNA treated cells compared to mock controls: MDA; for sensitivity to drug of prohibitin siRNA treated cells compared to mock-treated cells: FIG. 9A-9H; for IC50: Homo sapiens. The procedure: as §1
as §2, with “RNA-transfected” for “Cell survival was determined using the MTT cytotoxicity assay (see, e.g., Tokuyama et al. (2005) Anticancer Res. 25(1A): 17-22). RNA-transfected”, “drugs.” for “drugs. Doxorubicin (adriamycin), cisplatinum, taxol, vinblastin, vincristin, and mitoxantrone were all purchased from Sigma Corp. (St. Louis, Mo.).”

Where [4] appears, read: MCF-7 cells, prohibitin (siRNA) transfected, Table 9, read-out: EC50, Prohibitin.
[5] abbreviates: mock-transfected control, Table 10 experiment, read-out: EC50, Control.
Where [6] appears, read: mock-transfected control, Table 11 experiment, read-out: EC50, Control.
Where [7] appears, read: prohibitin (siRNA) transfected, Table 10 experiment, read-out: EC50, Prohibitin.
Where [8] appears, read: prohibitin (siRNA) transfected, Table 11 experiment, read-out: EC50, Prohibitin.
Setting [9] is: mock-transfected control, Table 3 experiment, read-out: EC50, Control.
The mark [10] stands for this setting: mock-transfected control, Table 4 experiment, read-out: EC50, Control.
Setting [11] is: mock-transfected control, Table 5 experiment, read-out: EC50, Control.
The mark [12] stands for this setting: mock-transfected control, Table 6 experiment, read-out: EC50, Control.
Setting [13] is: mock-transfected control, Table 7 experiment, read-out: EC50, Control.
Where [14] appears, read: mock-transfected control, Table 8 experiment, read-out: EC50, Control.
[15] abbreviates: prohibitin (siRNA) transfected, Table 3 experiment, read-out: EC50, Prohibitin.
The mark [16] stands for this setting: prohibitin (siRNA) transfected, Table 4 experiment, read-out: EC50, Prohibitin.
Setting [17] is: prohibitin (siRNA) transfected, Table 5 experiment, read-out: EC50, Prohibitin.
The mark [18] stands for this setting: prohibitin (siRNA) transfected, Table 6 experiment, read-out: EC50, Prohibitin.
[19] abbreviates: prohibitin (siRNA) transfected, Table 7 experiment, read-out: EC50, Prohibitin.
[20] abbreviates: prohibitin (siRNA) transfected, Table 8 experiment, read-out: EC50, Prohibitin.
[21] abbreviates: Table 3 experiment, direction IS/IR in same cell (E6).
[22] abbreviates: Table 4 experiment, direction IS/IR in same cell (E12).
Where [23] appears, read: Table 8 experiment, direction IS/IR in same cell (E36).
Where [24] appears, read: Homo sapiens, MCF7, MCF-7 cells, prohibitin (siRNA) transfected, Table 9, read-out: EC50, Prohibitin.

Read-outs that look alike come from different tables or passages of the source.

On to `N.N.[Cl][Pt][Cl]` [Cisplatinum], for which the EC50 in experiment [1] (MCF-7 cells, mock-transfected control, Table 9, read-out: EC50, Control) was found to be 118 µM; in experiment [1] (setting [4]) it was 151 µM; in experiment [2] (setting [5]) it was 22.4 µM; in experiment [2] (setting [6]), 50 µM; in experiment [2] (setting [7]), 26.3 µM; in experiment [2] (setting [8]), 68.8 µM. For the same compound, the EC50 in experiment [3] (setting [9]) came out at 255 µM; in experiment [3] (setting [10]) it was 374 µM; in experiment [3] (setting [11]), 94.3 µM; in experiment [3] (setting [12]) it was 164 µM; in experiment [3] (setting [13]) it was 76.8 µM; in experiment [3] (setting [14]), 29.3 µM. The EC50 in experiment [3] (setting [15]) is 189 µM; in experiment [3] (setting [16]), 271 µM; in experiment [3] (setting [17]) it was 124 µM; in experiment [3] (setting [18]), 189 µM; in experiment [3] (setting [19]) it was 54.5 µM; in experiment [3] (setting [20]) it was 57 µM. The “change in sensitivity to the drug, Prohibitin vs Control” value in experiment [1] (MCF-7 cells, Table 9) was “IR (IR: “increased in resistance” to the drug)”. Further, the “fold change of EC50, Prohibitin vs Control” value (from here on “fold change of EC50”) in experiment [1] (MCF-7 cells, Table 9) is 1.3 x; in experiment [2] (Table 11 experiment), 1.4 x; in experiment [3] (setting [21]), 1.2 x; in experiment [3] (setting [22]), 1.4 x; in experiment [3] (Table 5 experiment, direction IS/IR in same cell (E18)), 1.3 x; in experiment [3] (Table 6 experiment, direction IS/IR in same cell (E24)), 1.1 x. The “fold change of EC50” value in experiment [3] (Table 7 experiment, direction IS/IR in same cell (E30)) was 1.4 x; in experiment [3] (setting [23]), 1.9 x. Moreover, the “sensitivity to drug of prohibitin siRNA treated cells compared to mock-treated cells” value in experiment [3] was “increased sensitivity”. The “sensitivity to drug of prohibitin siRNA treated cells compared to controls” value (from here on “sensitivity to drug … compared to controls”) in experiment [3] (FIGS. 10A-10H) was “more sensitive”. The “sensitivity to drug of prohibitin siRNA treated cells compared to mock controls” value (shortened to “sensitivity to drug … compared to mock controls”) in experiment [3] (FIGS. 13A-13H) is “increased sensitivity”.
For the compound `COc1cccc2c1C(=O)c1c(O)c3c(c(O)c1C2=O)C[C@@](O)(C(=O)CO)C[C@@H]3O[C@H]1C[C@H](N)[C@H](O)[C@H](C)O1` [Doxorubicin], the “sensitivity to drug of prohibitin siRNA treated cells” value in experiment [1] is recorded as “more sensitive”. For the same compound, the half-maximal effective concentration (EC50) in experiment [1] (setting [4]) was 0.03 µM; in experiment [2] (setting [7]), 0.0128 µM; in experiment [2] (setting [8]) it was 1.23e-05 µM; in experiment [3] (setting [15]), 0.00173 µM; in experiment [3] (setting [16]), 0.00125 µM; in experiment [3] (setting [17]) it was 0.000993 µM. In addition, the EC50 stood at 0.00172 µM in experiment [3] (setting [18]) and 0.000139 µM in experiment [3] (setting [20]). Further, the IC50 in experiment [2] (setting [5]) was determined as 21.3 nM; in experiment [2] (setting [6]) it was 0.0265 nM; in experiment [3] (setting [9]) it was 0.00146 µM; in experiment [3] (setting [10]) it was 0.000873 µM; in experiment [3] (setting [11]), 0.00175 µM; in experiment [3] (setting [12]) it was 0.00225 µM. Besides, the IC50 in experiment [3] (setting [13]) came out at 0.000232 µM; in experiment [3] (setting [14]), 0.000177 µM. For the same compound, the “sensitivity to drug … compared to controls” value in experiment [3] (FIG. 11A) is reported as “increased sensitivity”. Further, the entries for the “sensitivity to drug … compared to mock controls” value in experiment [3] (FIGS. 13A-13H) and in experiment [3] (FIGS. 14A-14H) were “increased sensitivity” and “more sensitive”, respectively.
For the compound `COc1cc([C@@H]2c3cc4c(cc3[C@@H](O[C@@H]3O[C@@H]5CO[C@@H](C)O[C@H]5[C@H](O)[C@H]3O)[C@H]3COC(=O)[C@H]23)OCO4)cc(OC)c1O` [Etoposide], the figures for the 50% effective concentration (EC50) in experiment [1] (setting [24]), in experiment [2] (setting [7]) and in experiment [2] (setting [8]) were 7.28 µM, 0.611 µM and 0.241 µM, respectively. In addition, the “sensitivity to drug of prohibitin siRNA treated cells” value in experiment [1] is given as “more sensitive”. The “fold change of EC50” value in experiment [1] (MCF-7 cells, Table 9) stood at 2.2 x; in experiment [3] (setting [22]), 1.3 x. Also, the IC50 in experiment [2] (setting [5]) worked out at 621 nM; in experiment [2] (setting [6]), 148 nM; in experiment [3] (setting [9]), 78.9 µM; in experiment [3] (setting [10]) it was 83.9 µM; in experiment [3] (setting [13]) it was 9.56 µM; in experiment [3] (setting [14]), 9.31 µM. For the same compound, the IC50 in experiment [3] (setting [15]) amounted to 76.5 µM; in experiment [3] (setting [16]), 63 µM; in experiment [3] (setting [19]), 10 µM; in experiment [3] (setting [20]), 9.64 µM. Besides, the “sensitivity to drug … compared to controls” value in experiment [3] (FIGS. 10A-10H) is given as “more sensitive”.
In the case of `N[C@@H](Cc1ccc(N(CCCl)CCCl)cc1)C(=O)O` [Melphalan], the EC50 stood at 14.7 µM in experiment [1] (Homo sapiens, MCF7, MCF-7 cells, mock-transfected control, Table 9, read-out: EC50, Control); 10.5 µM in experiment [1] (setting [24]); 4.54 µM in experiment [2] (setting [7]); 4.57 µM in experiment [2] (setting [8]); 39.1 µM in experiment [3] (setting [15]); 41 µM in experiment [3] (setting [16]). The EC50 in experiment [3] (setting [19]) was determined as 23.9 µM; in experiment [3] (setting [20]), 19.1 µM. Also, the “sensitivity to drug of prohibitin siRNA treated cells” value in experiment [1] is on record as “more sensitive”. Moreover, the “fold change of EC50” value in experiment [1] (MCF-7 cells, Table 9) is given as 1.4 x; in experiment [2] (Table 11 experiment), 1.3 x; in experiment [3] (setting [21]), 1.5 x; in experiment [3] (setting [22]), 1.1 x; in experiment [3] (setting [23]), 1.8 x. Besides, the IC50 is 5790 nM in experiment [2] (setting [5]); 5950 nM in experiment [2] (setting [6]); 60.1 µM in experiment [3] (setting [9]); 36.1 µM in experiment [3] (setting [10]); 24.9 µM in experiment [3] (setting [13]); 35.4 µM in experiment [3] (setting [14]). Also, the “sensitivity to drug of prohibitin siRNA treated cells compared to mock-treated cells” value in experiment [3] is “increased sensitivity”. The “sensitivity to drug … compared to mock controls” value in experiment [3] (FIGS. 14A-14H) is “more sensitive”.

As a reminder, the EC50 is the concentration that produces a half-maximal response.
